This data set can be described thus: MRI造影効果: MRI contrast effect of solutions (T1- and T2-weighted, 7.0T). The format is physicochemical. The note with it: aqueous solution, 0, 1.3, 2.5, 5mM, T1- and T2-weighted images, Fig. 6(C).

Regarding `Cc1ccc(Nc2nccc(N(C)c3ccc4c(C)n(C)nc4c3)n2)cc1S(N)(=O)=O` [比較例1, 2-メチル-5-[[4-[メチル(2,3-ジメチル-2H-インダゾール-6-イル)アミノ]ピリミジン-2-イル]アミノ]ベンゼンスルホンアミド], the MRI image appearance entry was “いずれの濃度においても白色の高シグナル”.

Values taken from patent JP2017128553A, “抗癌剤、抗癌剤の制御方法” (IHI Corp, priority 2016, dated 2017).
